The results in this text go back to ChEMBL document CHEMBL4699438, “Toward the discovery and development of effective modulators of α-synuclein amyloid aggregation” (Eur J Med Chem, 2019).

For test [1], the target named is T1, Alpha-synuclein (Homo sapiens, UniProt P37840). Briefly: Binding affinity to alpha-synuclein (unknown origin) expressed in Escherichia coli BL21(DE3) by circular dichroism analysis. In general terms: Circular dichroism is the unequal absorption of left and right circularly polarised light.
Test [2] concerns the target T1, Alpha-synuclein. Briefly: Binding affinity to alpha-synuclein preformed fibrils (unknown origin) expressed in Escherichia coli BL21(DE3) cells incubated for 30 mins by spectrofluorometric analysis.
For test [3], the target named is T1, Alpha-synuclein. In words: Binding affinity to alpha-synuclein LMV 50 kDa (unknown origin) expressed in Escherichia coli BL21(DE3) cells incubated for 30 mins by spectrofluorometric analysis.
Test [4] in a line: Binding affinity to alpha-synuclein A69C/F94W double-mutant (unknown origin) expressed in Escherichia coli BL21(DE3) cells assessed as binding constant for binding single molecule at 10 uM by absorption spectroscopy. The arrangement: species or system Homo sapiens.
Test [5] in a line: Binding affinity to alpha-synuclein A69C/F94W double-mutant (unknown origin) expressed in Escherichia coli BL21(DE3) cells assessed as binding constant for binding single molecule at 10 uM incubated for 10 mins by fluorescence analysis. Details: species or system Homo sapiens.
Test [6] can be described thus: Binding affinity to alpha-synuclein A69C/F94W double-mutant (unknown origin) expressed in Escherichia coli BL21(DE3) cells assessed as binding constant for binding two molecule at 10 uM incubated for 10 mins by fluorescence analysis. The arrangement: species or system Homo sapiens.
For test [7], the target named is T1, Alpha-synuclein. Briefly: Inhibition of alpha-synuclein fibril formation (unknown origin) incubated for 24 hrs to 7 days by thioflavin S based fluorescence assay.
Test [8] in a line: Binding affinity to alpha-synuclein Y39W/A69C double-mutant (unknown origin) expressed in Escherichia coli BL21(DE3) cells assessed as binding constant for binding two molecule at 10 uM incubated for 10 mins by fluorescence analysis. Details: species or system Homo sapiens.
The nature of test [9]: Binding affinity to alpha-synuclein A69C/F94W double-mutant (unknown origin) expressed in Escherichia coli BL21(DE3) cells assessed as binding constant for binding two molecule at 10 uM by absorption spectroscopy. Details: species or system Homo sapiens.
Test [10] concerns the target T1, Alpha-synuclein. In words: Inhibition of wild type alpha-synuclein aggregation (unknown origin) expressed in Escherichia coli BL21 cells incubated for 30 days by thioflavin T based fluorescence assay.
The nature of test [11]: Binding affinity to alpha-synuclein A69C/F94W double-mutant (unknown origin) expressed in Escherichia coli BL21(DE3) cells assessed as binding constant for binding two molecule at 10 uM incubated for 10 mins by tryptophan fluorescence assay. Details: species or system Homo sapiens.
Test [12] can be described thus: Binding affinity to alpha-synuclein A69C/F94W double-mutant (unknown origin) expressed in Escherichia coli BL21(DE3) cells assessed as binding constant for binding single molecule at 10 uM incubated for 10 mins by tryptophan fluorescence assay. Details: species or system Homo sapiens.
Test [13] deals with T1, Alpha-synuclein. In words: Binding affinity to alpha-synuclein LMV 100 kDa (unknown origin) expressed in Escherichia coli BL21(DE3) cells incubated for 30 mins by spectrofluorometric analysis.
Test [14] has as its target T1, Alpha-synuclein. Briefly: Binding affinity to alpha-synuclein oligomer (unknown origin) expressed in Escherichia coli BL21(DE3) cells incubated for 30 mins by spectrofluorometric analysis.
A short description of test [15]: Binding affinity to alpha-synuclein Y39W/A69C double-mutant (unknown origin) expressed in Escherichia coli BL21(DE3) cells assessed as binding constant for binding single molecule at 10 uM incubated for 10 mins by fluorescence analysis. The arrangement: species or system Homo sapiens.

For orientation: Kd means the constant that tells how readily two partners part at equilibrium. In turn, `CO/N=C(\C(=O)N[C@@H]1C(=O)N2C(C(=O)O)=C(CSc3nc(=O)c(=O)[nH]n3C)CS[C@H]12)c1csc(N)n1` [CEFTRIAXONE] displayed a Kd in test [1] of 0.53 µM.

As a reminder, the IC50 is the point on the concentration scale where inhibition reaches its midpoint. The low end stands for greater potency, the high end for weaker potency. `COc1cc(/C=C/C(=O)CC(=O)/C=C/c2ccc(O)c(OC)c2)ccc1O` [CURCUMIN]: the dissociation constant Kd is 0.5 µM in test [2]; 6.5 µM in test [3]; 10 µM in test [4]; 0.69 µM in [5]; 7.7 µM in test [6]; 0.85 µM in [8]. The dissociation constant Kd in test [9] is 21 µM; in [11], 20 µM; in [12], 58 µM; in test [13], 5 µM; in [14] it was 2 µM; in test [15] it was 0.56 µM. For the same compound, the IC50 in test [7] came to 0.22 µM; in test [10], 162 µM.
